Reference: patent US20240166765A1, “INFLAMMATORY DISEASE TREATMENT USING ANTI-TISSUE FACTOR ANTIBODIES” (Iconic Therapeutics LLC, priority 2020, published 2024)

Tested on: thrombin generation (relipidated TF in normal pooled plasma)
Experiment: Thrombin generation assay (TGA) with 10 min antibody pre-incubation
Assay type: biochemical, human
Conditions: Ab conc. 10 nM
Description: (§1) The TGA assay was performed using the calibrated-automated-thrombogram (CAT) instrument manufactured and distributed by STAGO. The test method design was equivalent to a standard CAT assay measurement, except that the plasma source was NPP in citrate/CTI. […] Relipidated TF was added to a 96-well assay plate, followed by addition of the antibody/NPP mixture. After a 10-min incubation or directly after combining the relipidated TF with antibody/NPP, thrombin generation was initiated by the addition of calcium and the thrombin substrate. The STAGO software was used to report the following parameters: Peak IIa (highest thrombin concentration generated [nM]); Lag Time (time to IIa generation [min]); ETP (endogenous thrombin potential, area under the curve [nM×min]); and ttPeak (time to Peak IIa [min]).
as §1, with “was normal pooled plasma (NPP)” for “was NPP”, “in citrate supplemented with corn trypsin inhibitor (citrate/CTI).” for “in citrate/CTI.”
TGA assay was performed using the calibrated-automated-thrombogram (CAT) instrument manufactured and distributed by STAGO (Diagnostica Stago SAS, Asnieres sur Seine, France). […] The anti-TF antibodies were titrated at 0, 10, 50 and 100 nM and mixed with NPP in citrate/CTI. Relipidated TF was added to a 96-well assay plate, followed by addition of the antibody/NPP mixture. After a 10-min incubation or directly after combining the relipidated TF with antibody/NPP, thrombin generation was initiated by the addition of calcium and the thrombin substrate. The STAGO software was used to report the following parameters: Peak IIa (highest thrombin concentration generated on the thrombin generation curve [nM]); Lag Time (time from assay start to the moment 10 nM of thrombin is formed [min]); ETP (endogenous thrombin potential, area under the curve [nM×min]); and ttPeak (time from assay start to Peak IIa [min]). […] As used herein, the term “thrombin generation assay” (TGA) refers to the TGA used in this example.

For TF-011, the ETP was 792 nM·min.
